For 18 compounds, GI50 and IC50 results are on record in patent publication US20230416221A1, “DIHYDROISOQUINOLINONE AND ISOINDOLINONE DERIVATIVES AND USES THEREOF” (HEFEI INSTITUTES OF PHYSICAL SCIENCE, CHINESE ACADEMY OF …, priority 2020, published 2023).

For experiment [1], the system named is acute myeloid leukemia cell line MOLM13. The experiment is described as follows: Growth of cancer cells, Cell Titer-Glo GI50, MOLM13. The class given is cell-based. For orientation: Cellular ATP, detected with luciferase, serves as a proxy for viable cell number.
The test system of experiment [2] is acute myeloid leukemia cell line MOLM14. The experiment is described as follows: Growth of cancer cells, Cell Titer-Glo GI50, MOLM14. The class given is cell-based. Conditions: read-out: GI50 MOLM 14.
Another experiment has as its target CDK9/CyclinT1 protein (Homo sapiens (Human), UniProt P50750). In words: Enzyme activity assay of CDK9 protein inhibition in vitro, CDK9/CyclinT1.
Experiment [3] deals with histiocytic lymphoma U-937. In words: Growth of cancer cells, Cell Titer-Glo GI50, U937. The class given is cell-based. The settings on record: Homo sapiens, read-out: GI50 U937.
Experiment [4] concerns acute myeloid leukemia cell line OCI-AML-3. In words: Growth of cancer cells, Cell Titer-Glo GI50, OCI-AML-3. The class given is cell-based. The settings on record: Homo sapiens, read-out: GI50 AML3.
The subject of experiment [5] is human chronic myeloid leukemia cell K562. In words: Growth of cancer cells, Cell Titer-Glo GI50, K562. The class given is cell-based. The settings on record: read-out: GI50 K562.
The subject of experiment [6] is acute myeloid leukemia cell line MV4-11. In words: Growth of cancer cells, Cell Titer-Glo GI50, MV4-11. The settings on record: read-out: GI50 MV4-11.
The subject of experiment [7] is human ovarian granulosa tumor cell COV434. The experiment is described as follows: Growth of cancer cells, Cell Titer-Glo GI50, COV434. The class given is cell-based. Conditions: Homo sapiens, COV434, 72 h, read-out: GI50 COV434.
In a further experiment the target is CDK9 (Homo sapiens (Human), UniProt P50750). The experiment is described as follows: Binding activity of compound and CDK9, split luciferase system (C37-CL / CDK9-NL) in HEK-293T cells. The class given is cell-based. An excerpt: The plasmid of split luciferase system was constructed by molecular cloning technology. The N-terminal domain (NLuc) and C-terminal domain (CLuc) of luciferase were respectively cloned and inserted into the vector PCDNA3 to construct NLuc-PCDNA3 and CLuc-PCDNA3 vectors, and the polyclonal sites were reserved at both ends of the sequence. Then CDC37 and CDK9 were cloned into the corresponding vectors to construct C37-CL and CDK9-NL vectors. C37-CL plasmid sequence is shown in SEQ ID NO. 1. CDK9-NL plasmid sequence is shown in SEQ ID NO. 2.
Sequence of CDK9 (P50750 whole entry, the tested form may be a part): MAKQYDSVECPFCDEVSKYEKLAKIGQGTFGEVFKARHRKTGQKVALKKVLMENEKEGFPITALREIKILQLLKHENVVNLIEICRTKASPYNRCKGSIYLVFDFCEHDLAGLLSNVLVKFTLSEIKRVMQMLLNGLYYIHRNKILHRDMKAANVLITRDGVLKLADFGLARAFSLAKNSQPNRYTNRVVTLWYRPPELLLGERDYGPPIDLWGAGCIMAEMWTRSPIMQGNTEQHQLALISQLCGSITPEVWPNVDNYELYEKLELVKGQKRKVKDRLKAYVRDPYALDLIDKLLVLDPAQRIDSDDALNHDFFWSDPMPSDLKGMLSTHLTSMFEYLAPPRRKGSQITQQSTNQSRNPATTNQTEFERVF
The mixed transfection complex was added to the 10 cm cell culture dish and cultured at 37° C. and 5% CO2 for 24 hours. […] After counting, the transfected cells were placed in a 96-well white Corning cell culture plate (purchased from Corning, U.S.) with 100 μL, 5000 cells/well. After 12 hours, the medium was removed from the 96-well plate and 100 μL culture medium containing corresponding concentration of the testing compound was added, which was cultured continuously for 12 hours. After 12 hours, 20 μL Luciferase-Glo (purchased from Promega, U.S.) testing reagent was added to each well. After mixing, the […] value was detected using a microplate reader.

Experiment [8] has as its system MOLM13 drug resistant strain MOLM13 BR1. In words: Growth of drug resistant strain MOLM13 BR1, Cell Titer-Glo GI50. Conditions: 72 hours. The class given is cell-based.
Where [9] appears, read: Homo sapiens, MOLM-13, incubated for 72 hours, Cell Titer-Glo, Table 1, read-out: GI50 MOLM 13.
Where [10] appears, read: Homo sapiens, MOLM-14, incubated for 72 hours, Cell Titer-Glo.
The mark [11] stands for this setting: Homo sapiens, MOLM-13, 72 h, read-out: GI50 MOLM 13.
Where [12] appears, read: U-937, incubated for 72 hours, Cell Titer-Glo.
Setting [13] is: incubated for 72 hours, Cell Titer-Glo.
Where [14] appears, read: Homo sapiens, K562, incubated for 72 hours, Cell Titer-Glo.
The mark [15] stands for this setting: Homo sapiens, MOLM-13, incubated for 72 hours, Cell Titer-Glo, Table 2, read-out: GI50 MOLM13.
Where [16] appears, read: Homo sapiens, MOLM-13, BAY1251152-resistant MOLM13 strain.

pIC50: −log10 of the molar value. Like-named read-outs stand apart in the source and are kept apart here. Some results are limits rather than exact numbers.

Sequence of CDK9/CyclinT1 protein (P50750 whole entry): as the sequence (P50750 whole entry, the tested form may be a part) above
Sequence of CDK9/CyclinT1 protein (O60563 whole entry partner): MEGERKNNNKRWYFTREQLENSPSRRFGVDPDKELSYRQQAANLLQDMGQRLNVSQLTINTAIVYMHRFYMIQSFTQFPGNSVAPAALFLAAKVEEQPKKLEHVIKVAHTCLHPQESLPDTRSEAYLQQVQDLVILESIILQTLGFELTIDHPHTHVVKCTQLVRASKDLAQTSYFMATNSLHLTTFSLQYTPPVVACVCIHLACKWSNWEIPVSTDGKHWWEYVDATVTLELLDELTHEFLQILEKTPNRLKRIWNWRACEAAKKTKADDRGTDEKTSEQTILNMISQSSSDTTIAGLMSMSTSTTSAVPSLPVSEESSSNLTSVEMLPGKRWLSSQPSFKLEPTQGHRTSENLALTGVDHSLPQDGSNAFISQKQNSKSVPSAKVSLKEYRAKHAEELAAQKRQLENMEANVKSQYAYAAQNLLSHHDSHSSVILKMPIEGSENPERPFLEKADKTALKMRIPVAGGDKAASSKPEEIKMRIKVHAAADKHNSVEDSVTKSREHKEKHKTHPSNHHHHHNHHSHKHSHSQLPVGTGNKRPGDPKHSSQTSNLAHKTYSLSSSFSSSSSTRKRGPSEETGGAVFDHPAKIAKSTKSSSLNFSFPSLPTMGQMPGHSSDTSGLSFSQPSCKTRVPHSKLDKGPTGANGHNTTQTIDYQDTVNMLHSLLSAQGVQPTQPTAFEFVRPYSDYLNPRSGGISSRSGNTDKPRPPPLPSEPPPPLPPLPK

`COCCN[C@H]1CC[C@H](Nc2ncc(Cl)c(-c3ccc4c(c3)C(C)(C)NC4=O)n2)CC1` [Compound 22, 5-(5-chloro-2-(((1r,4r)-4-((2-methoxyethyl)amino)cyclohexyl)amino)pyrimidin-4-yl)-3,3-dimethylisoindoline-1-one]: the GI50 (in general, the concentration at which growth is held to half of that of the control) in experiment [1] (setting [9]) was 28 nM; in [2] (setting [10]), 41 nM. On CDK9/CyclinT1 protein, this compound had a pIC50 of 7.89.

`CC1(C)CNC(=O)c2ccc(-c3ccnc(Nc4cccc(CS(C)(=O)=O)c4)n3)cc21` [Compound 28, 4,4-dimethyl-6-(2-((3-((methylsulfonyl)methyl)phenyl)amino)pyrimidin-4-yl)-3,4-dihydroisoquinolin-1(2H)-one]: the GI50 in [3] (U-937, 72 h) amounted to 2 nM; in experiment [4] (72 h) it was 2 nM; in experiment [1] (setting [11]) it was 1 nM; in experiment [2] (Homo sapiens, MOLM-14, 72 h), 2 nM; in experiment [5] (Homo sapiens, K562, 72 h) it was 10 nM; in experiment [6] (Homo sapiens, MV4-11, 72 h), 2 nM.

In the case of `CN(C)S(=O)(=O)c1cccc(Nc2nccc(-c3ccc4c(c3)C(C)(C)CNC4=O)n2)c1` [Compound 29, 3-((4-(4,4-dimethyl-1-oxo1,2,3,4-tetrahydroisoquinolin-6-yl)pyrimidin-2-yl)amino)-N,N-dimethylbenzenesulfonamide], the GI50 in experiment [3] (setting [12]) was determined as 186 nM; in experiment [4] (setting [13]), 153 nM; in [1] (setting [9]) it was 35 nM; in [2] (setting [10]), 59 nM; in [5] (setting [14]), 942 nM; in [6] (Homo sapiens, MV4-11, 72 h) it was 57 nM. At CDK9/CyclinT1 protein, this compound gave a pIC50 of 7.57.

In the case of `CN1CCC(NC(=O)c2cccc(Nc3nccc(-c4ccc5c(c4)C(C)(C)CNC5=O)n3)c2)CC1` [Compound 33, 3-((4-(4,4-dimethyl-1-oxo-1,2,3,4-tetrahydroisoquinolin-6-yl)pyrimidin-2-yl)amino)-N-(1-methylpiperidin-4-yl)benzamide], the GI50 in experiment [3] (setting [12]) turned out to be 63 nM; in experiment [4] (setting [13]), 48 nM; in experiment [7] it was 8 nM; in experiment [1] (setting [9]), 10 nM; in experiment [5] (setting [14]), 77 nM; in experiment [6] (Homo sapiens, MV4-11, 72 h), 6 nM.

Consider `CC1(C)CNC(=O)c2ccc(-c3ccnc(Nc4ccc(F)c(CS(C)(=O)=O)c4)n3)cc21` [Compound 36, 6-(2-((4-fluoro-3-((methylsulfonyl)methyl)phenyl)amino)pyrimidin-4-yl)-4,4-dimethyl-3,4-dihydroisoquinolin-1(2H)-one], for which the GI50 in [1] (setting [11]) was under 1 nM; in experiment [2] (Homo sapiens, MOLM-14, 72 h), 2 nM; in [5] (Homo sapiens, K562, 72 h), 9 nM; in experiment [6] (Homo sapiens, MV4-11, 72 h) it was 3 nM.

Turning to `CC1(C)CNC(=O)c2ccc(-c3ccnc(Nc4cccc(S(C)(=N)=O)c4)n3)cc21` (centres unmarked) [Compound 38], the GI50 in experiment [1] (setting [9]) was determined as 5 nM; in experiment [2] (setting [10]), 16 nM; in experiment [5] (setting [14]), 95 nM; in [6] (Homo sapiens, MV4-11, 72 h), 13 nM.

For the compound `CN1CCC(NC(=O)c2cc(Nc3nccc(-c4ccc5c(c4)C(C)(C)CNC5=O)n3)ccc2F)CC1` [Compound 41], the GI50 in [3] (setting [12]) is 13 nM; in [4] (setting [13]), 23 nM; in experiment [1] (setting [9]) it was 11 nM; in experiment [2] (setting [10]), 25 nM; in [5] (setting [14]), 84 nM; in [6] (Homo sapiens, MV4-11, 72 h), 6.6 nM. The pIC50 at CDK9 was 6.94; against CDK9/CyclinT1 protein it was 8.60.

Take `COc1ccc(Nc2nccc(-c3ccc4c(c3)C(C)(C)CNC4=O)n2)cc1CS(C)(=O)=O` [Compound 45, 6-(2-((4-methoxy-3-((methylsulfonyl)methyl)phenyl)amino)pyrimidin-4-yl)-4,4-dimethyl-3,4-dihydroisoquinolin-1(2H)-one]: the GI50 in [1] (setting [9]) stood at 30 nM; in experiment [2] (setting [10]), 96 nM.

As to `CC1(C)NC(=O)c2ccc(-c3nc(Nc4ccc(F)c(CS(C)(=O)=O)c4)ncc3Cl)cc21` [Compound 51, 5-(5-chloro-2-((4-fluoro-3-((methylsulfonyl)methyl)phenyl)amino)pyrimidin-4-yl)-3,3-dimethylisoindoline-1-one], the GI50 in experiment [2] (setting [10]) was 15 nM.

On to `CC1(C)CNC(=O)c2ccc(-c3nc(Nc4ccc(F)c(C5(S(C)(=O)=O)CC5)c4)ncc3F)cc21` [Compound 63, 6-(5-fluoro-2-((4-fluoro-3-(1-(methylsulfonyl)cyclopropyl)phenyl)amino)pyrimidin-4-yl)-4,4-dimethyl-3,4-dihydroisoquinolin-1(2H)-one], for which the GI50 was 19 nM in experiment [1] (setting [9]) and 44 nM in [2] (setting [10]).

On to `CN1CCN(c2cc(Nc3ncc(F)c(-c4ccc5c(c4)C(C)(C)CNC5=O)n3)ccc2F)CC1` [Compound 72, 6-(5-fluoro-2-((4-fluoro-3-(4-methylpiperazin-1-yl)phenyl)amino)pyrimidin-4-yl)-4,4-dimethyl-3,4-dihydroisoquinolin-1(2H)-one], for which the results for the GI50 in experiment [1] (setting [9]) and in [2] (setting [10]) were under 1 nM and 5.5 nM, respectively. Besides, the pIC50 on CDK9/CyclinT1 protein was 7.82.

As for `CN1CCN(c2cc(F)cc(Nc3ncc(F)c(-c4ccc5c(c4)C(C)(C)CNC5=O)n3)c2)CC1` [Compound 73, 6-(5-fluoro-2-((3-fluoro-5-(4-methylpiperazin-1-yl)phenyl)amino)pyrimidin-4-yl)-4,4-dimethyl-3,4-dihydroisoquinolin-1(2H)-one], the GI50 in experiment [1] (setting [9]) is under 1 nM; in experiment [1] (setting [15]), 1.64 nM; in experiment [2] (setting [10]), under 1 nM; in [5] (setting [14]) it was 26 nM; in experiment [8] (setting [16]), 0.345 nM.

As for `CN1CCN(c2cc(Nc3ncc(Cl)c(-c4ccc5c(c4)C(C)(C)CNC5=O)n3)ccc2F)CC1` [Compound 75, 6-(5-chloro-2-((4-fluoro-3-(4-methylpiperazin-1-yl)phenyl)amino)pyrimidin-4-yl)-4,4-dimethyl-3,4-dihydroisoquinolin-1(2H)-one], the GI50 in experiment [1] (setting [9]) is 33 nM; in experiment [2] (setting [10]), 110 nM.

As for `CC(C)N1CCN(c2cc(Nc3ncc(F)c(-c4ccc5c(c4)C(C)(C)CNC5=O)n3)ccc2F)CC1` [Compound 80, 6-(5-fluoro-2-((4-fluoro-3-(4-isopropylpiperazin-1-yl)phenyl)amino)pyrimidin-4-yl)-4,4-dimethyl-3,4-dihydroisoquinolin-1(2H)-one], the GI50 turned out to be 3.3 nM in experiment [1] (setting [9]); 11.6 nM in experiment [1] (setting [15]); 7.2 nM in experiment [2] (setting [10]); 15 nM in experiment [5] (setting [14]); 12.3 nM in experiment [8] (setting [16]).

In the case of `CC(=O)N[C@@H]1CCC[C@H](C(=O)Nc2cc(-c3ccc4c(c3)C(C)(C)CNC4=O)c(Cl)cn2)C1` [Compound 96, (1S,3R)-3-acetylamino-N-(5-chloro-4-(4,4-dimethyl-1-oxo-1,2,3,4-tetrahydroisoquinolin-6-yl)pyridin-2-yl)cyclohexyl-1-formamide], the GI50 in experiment [1] (incubated for 72 hours, Cell Titer-Glo, Table 1, read-out: GI50 MOLM 13) came out at 8 nM; in [2] (setting [13]), 17 nM; in [5] (setting [13]) it was 72 nM; in [8] (BAY1251152-resistant MOLM13 strain), 5.6 nM; in experiment [6] (setting [13]) it was 9 nM. Moreover, the pIC50 on CDK9/CyclinT1 protein (read-out: CDK9/CyclinT1 Protein activity (IC50)) is 9.28.

As to `CC1(C)CNC(=O)c2ccc(-c3ccnc(N[C@@H]4CCCN(S(C)(=O)=O)C4)n3)cc21` [Compound 104], the GI50 in [2] (setting [10]) worked out at 10 nM; in experiment [6] (Homo sapiens, MV4-11, 72 h), 34 nM. This compound also showed a pIC50 at CDK9/CyclinT1 protein of 9.05.

As for `CC1(C)CNC(=O)c2ccc(-c3ccnc(NC4CCN(S(C)(=O)=O)CC4)n3)cc21` [Compound 105, 4,4-dimethyl-6-(2-((1-(methylsulfonyl)piperidin-4-yl)amino)pyrimidin-4-yl)-3,4-dihydroisoquinolin-1(2H)-one], the GI50 in experiment [2] (setting [10]) was 43 nM; in experiment [6] (Homo sapiens, MV4-11, 72 h), 82 nM. On CDK9/CyclinT1 protein, the pIC50 was 7.82.

For the compound `CC1(C)CNC(=O)c2ccc(-c3ccnc(N[C@H]4CC[C@H](CC(=O)O)CC4)n3)cc21` [Compound 106], the pIC50 at CDK9/CyclinT1 protein was 7.98.
